Test results: ChEMBL document CHEMBL1154345, “Discovery of tricyclic 5,6-dihydro-1H-pyridin-2-ones as novel, potent, and orally bioavailable inhibitors of HCV NS5B polymerase” (Bioorg Med Chem Lett, 2009)
pEC50: −log10 of the molar value.

Experiments:
[1] = test system: Cynomolgus monkey; assay: AUC (0 to infinity) in cynomolgus monkey at 0.5 mg/kg, po; assay type: ADME, organism-based, Macaca fascicularis, Plasma; design: time infinity, dose 0.5 mg/kg, route oral; details: in vivo
[2] = Oral bioavailability in cynomolgus monkey at 0.5 mg/kg; assay type: ADME, organism-based, Macaca fascicularis; details: in vivo
[3] = Clearance in cynomolgus monkey at 0.5 mg/kg, iv; assay type: ADME, organism-based, Macaca fascicularis; design: dose 0.5 mg/kg, route intravenous; details: in vivo
[4] = test system: Cynomolgus monkey; assay: AUC (0 to infinity) in cynomolgus monkey at 0.5 mg/kg, iv; assay type: ADME, organism-based, Macaca fascicularis, Plasma; design: time infinity, dose 0.5 mg/kg, route intravenous; details: in vivo
[5] = Cytotoxicity against human HuH7 cells assessed as GAPDH release; assay type: cell-based, Huh-7
[6] = in vitro; details: rhesus monkey
Description: (§2) Metabolic stability in monkey liver microsomes assessed as half life at 5 uM

[7] = in vitro; details: rhesus monkey, Stability
Description: (§3) Metabolic stability in monkey liver microsomes assessed as compound remaining after 60 mins at 5 uM

[8] = test system: Hepatitis C virus; assay: microbe, parasite or virus in culture; assay type: functional, organism-based, Hepacivirus hominis, genotype 1b, Huh-luc/neo-ET
Description: Antiviral activity against HCV-1b infected human Huh-luc/neo-ET replicon cells after 72 hrs by luciferase based replicon assay

[9] = test system: Hepatitis C virus; assay: microbe, parasite or virus in culture; assay type: functional, organism-based, Hepacivirus hominis, subtype 1a, Huh-lunet
Description: Antiviral activity against HCV-1a infected in human Huh-lunet cells after 4 days by luciferase based replicon assay

[10] = in vitro; details: human, t1/2
[11] = physchem; details: aqueous medium, pH 7.5
Description: Aqueous solubility at pH 7.5

[12] = (§1) Oral bioavailability in cynomolgus monkey at 1 mg/kg; assay type: ADME, organism-based, Macaca fascicularis; details: in vivo
[13] = in vitro; details: human, Caco-2
Description: Apparent permeability from apical side to basolateral side of human Caco-2 cells at 10 uM after 3 hrs

[14] = in vitro; details: human
Description: Metabolic stability in human liver microsomes assessed as compound remaining after 60 mins at 1 uM

[15] = test system: Cynomolgus monkey; details: in vivo, iv, 1 mg/kg
[16] = test system: Cynomolgus monkey; details: in vivo, po, 1 mg/kg
[17] = rhesus monkey, microsomes, 5 µM
Description: as §2

[18] = rhesus monkey, microsomes, 1 h, 5 µM
Description: as §3

[19] = Clearance in cynomolgus monkey at 1 mg/kg, iv; assay type: ADME, organism-based, Macaca fascicularis; design: dose 1 mg/kg, route intravenous; details: in vivo
[20] = test system: Cynomolgus monkey; assay: as §1; assay type: ADME, organism-based, Macaca fascicularis; details: in vivo
[21] = Hepatitis C virus, genotype 1b, Huh-luc/neo-ET, 72 h
[22] = Hepatitis C virus, subtype 1a, Huh-lunet, 96 h

SMILES	AUC [1] [ng·h/mL]	bioavailability [2] [%]	clearance [3] [mL/min/kg]	AUC [4] [ng·h/mL]	CC50 [5] [nM]	half-life at 5 µM ([6]; microsomes) [h]	remaining at 1 h, 5 µM ([7]; microsomes) [%]	pEC50 [8, 21]	pEC50 [9, 22]	half-life at 1 µM ([10]; microsomes) [h]	solubility [11] [µM]	bioavailability [12] [%]	Papp A→B at 3 h, 10 µM [13] [×10⁻⁶ cm/s]	remaining at 1 h, 1 µM ([14]; liver microsomes) [%]	AUC [15] [ng·h/mL]	half-life at 1 µM ([10]; liver microsomes) [h]	AUC [16] [ng·h/mL]	Stability [18] [%]	clearance [19] [mL/min/kg]	remaining at 1 h, 1 µM ([14]; microsomes) [%]	other results
CS(=O)(=O)Nc1ccc2c(c1)S(=O)(=O)N=C(C1=C(O)[C@H]3[C@@H]4CC[C@@H](C4)[C@H]3N(Cc3ccc(F)cc3)C1=O)N2	163	12	6.5	1390	> 33000	> 1	58	6.26	5.27	0.333											
CS(=O)(=O)Nc1ccc2c(c1)S(=O)(=O)N=C(C1=C(O)[C@@H]3[C@H]4CC[C@H](C4)[C@@H]3N(Cc3ccc(F)c(F)c3)C1=O)N2								8.15	7.43		> 100	45	1.05	100	44800	> 1	20300	95	0.37		t1/2 [17]: 1 h
CS(=O)(=O)Nc1ccc2c(c1)S(=O)(=O)N=C(C1=C(O)[C@@H]3[C@@H]([C@H]4CC[C@@H]3O4)N(Cc3ccc(F)cc3)C1=O)N2					> 1000			8.22	7.18		> 100	3	0.08	100	2650	> 1	90		6.3		half-life at 5 µM ([6]; liver microsomes): > 1 h; remaining at 1 h, 5 µM ([7]; liver microsomes): 100%
CS(=O)(=O)Nc1ccc2c(c1)S(=O)(=O)N=C(C1=C(O)[C@H]3[C@H]4CC[C@H](C4)[C@H]3N(Cc3ccc(F)cc3)C1=O)N2	409	26	5.7	1570	> 33000	> 1	95	6.57	5.60	> 1										75	
CS(=O)(=O)Nc1ccc2c(c1)S(=O)(=O)N=C(C1=C(O)C3C4CCC(C4)C3N(Cc3ccc(F)cc3)C1=O)N2 (racemic; 2a)					> 1000	> 1	91			0.567					63900		30700				F [20]: 48%; pEC50 ([8]; huh-luc/neo-et): 8.30; pEC50 ([9]; huh-lunet): 6.48
CS(=O)(=O)Nc1ccc2c(c1)S(=O)(=O)N=C(C1=C(O)C3C4CCC(C4)C3N(Cc3ccc(F)cc3)C1=O)N2 (racemic; 2b)															5500		1350	92		73	F [20]: 25%; pEC50 ([8]; huh-luc/neo-et): 8.70; pEC50 ([9]; huh-lunet): 7.04
